Assay results from patent US4576948A, “Composition and method for inhibiting terminal deoxyribonucleotidyl transferase activity” (Trustees Boston University, priority 1983, dated 1986).

How the values were obtained:
[1] = target: T1, terminal deoxyribonucleotidyl transferase (TdT) (Bos taurus, UniProt P06526); assay: TdT assay (3H-dGMP incorporation) with purified TdT; assay type: biochemical, calf; conditions: for CMP 3H--dGMP inc.: 200 μM compound, 35° C., 1 hour, 10 μM 3H-dGTP, DMSO only control 12,131; for CMP Incorporated, TdT: additive at 400 M (so in the source), DMSO control 12,131; for TdT inhibition (in words): concentration not given
T1 construct: classical preparation may be proteolysed two-subunit form of one gene product
T1 sequence (P06526 whole entry): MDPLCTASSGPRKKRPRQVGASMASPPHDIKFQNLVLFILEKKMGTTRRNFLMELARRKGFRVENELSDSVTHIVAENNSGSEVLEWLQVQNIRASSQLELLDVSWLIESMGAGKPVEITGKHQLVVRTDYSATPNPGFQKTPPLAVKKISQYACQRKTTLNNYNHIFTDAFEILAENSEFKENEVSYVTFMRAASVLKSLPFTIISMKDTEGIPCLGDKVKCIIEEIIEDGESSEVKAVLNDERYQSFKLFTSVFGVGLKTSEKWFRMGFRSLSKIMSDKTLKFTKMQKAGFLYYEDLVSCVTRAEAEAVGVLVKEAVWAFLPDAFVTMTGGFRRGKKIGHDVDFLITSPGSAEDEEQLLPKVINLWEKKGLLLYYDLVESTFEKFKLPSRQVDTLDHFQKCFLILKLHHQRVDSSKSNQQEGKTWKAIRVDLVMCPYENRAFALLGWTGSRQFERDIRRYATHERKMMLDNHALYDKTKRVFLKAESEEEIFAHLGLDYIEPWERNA
Method: (§1) TdT was purified from normal calf thymus gland by a procedure utilizing the successive steps of homogenization, ion exchange […] and gel filtration. Bollum et al, "The Enzymes", (R. D. Boxer Ed.) pp. 145-171, Academic Press, New York. TdT was assayed at 35° C. for 1 hour in 0.1 ml total volume of a reaction mixture comprising 0.05 M Tris-HCl (pH 8.3), 2 mM […], 0.6 mM MnCl2, 10 μg bovine serum albumin (BSA), 1 μg oligodA14-18, 10 μM ^3 H-dGTP (d-triphosphate) and chelex distilled H2 O. When used, the 6-anilinouracil derivates were added at various concentrations in 5 μl DMSO per 100 μl reaction mix. Other DNA polymerases (α, β, and γ) were assayed using standard assay conditions, as previously described by Wright, Baril and Brown, Nucleic Acids Research, Vol. 8, No. 1, pp. 99-109, 1980.
Reaction conditions used were as noted above.

HeLa cells [2] = conditions: background statement, 'in vivo'; cited from earlier work
HeLa cell polymerase α [3] = target: T2, HeLa cell polymerase α (Homo sapiens, UniProt P09884); conditions: background statement; no other mammalian cell DNA polymerase inhibited; cited from earlier work
T2 sequence (P09884 whole entry): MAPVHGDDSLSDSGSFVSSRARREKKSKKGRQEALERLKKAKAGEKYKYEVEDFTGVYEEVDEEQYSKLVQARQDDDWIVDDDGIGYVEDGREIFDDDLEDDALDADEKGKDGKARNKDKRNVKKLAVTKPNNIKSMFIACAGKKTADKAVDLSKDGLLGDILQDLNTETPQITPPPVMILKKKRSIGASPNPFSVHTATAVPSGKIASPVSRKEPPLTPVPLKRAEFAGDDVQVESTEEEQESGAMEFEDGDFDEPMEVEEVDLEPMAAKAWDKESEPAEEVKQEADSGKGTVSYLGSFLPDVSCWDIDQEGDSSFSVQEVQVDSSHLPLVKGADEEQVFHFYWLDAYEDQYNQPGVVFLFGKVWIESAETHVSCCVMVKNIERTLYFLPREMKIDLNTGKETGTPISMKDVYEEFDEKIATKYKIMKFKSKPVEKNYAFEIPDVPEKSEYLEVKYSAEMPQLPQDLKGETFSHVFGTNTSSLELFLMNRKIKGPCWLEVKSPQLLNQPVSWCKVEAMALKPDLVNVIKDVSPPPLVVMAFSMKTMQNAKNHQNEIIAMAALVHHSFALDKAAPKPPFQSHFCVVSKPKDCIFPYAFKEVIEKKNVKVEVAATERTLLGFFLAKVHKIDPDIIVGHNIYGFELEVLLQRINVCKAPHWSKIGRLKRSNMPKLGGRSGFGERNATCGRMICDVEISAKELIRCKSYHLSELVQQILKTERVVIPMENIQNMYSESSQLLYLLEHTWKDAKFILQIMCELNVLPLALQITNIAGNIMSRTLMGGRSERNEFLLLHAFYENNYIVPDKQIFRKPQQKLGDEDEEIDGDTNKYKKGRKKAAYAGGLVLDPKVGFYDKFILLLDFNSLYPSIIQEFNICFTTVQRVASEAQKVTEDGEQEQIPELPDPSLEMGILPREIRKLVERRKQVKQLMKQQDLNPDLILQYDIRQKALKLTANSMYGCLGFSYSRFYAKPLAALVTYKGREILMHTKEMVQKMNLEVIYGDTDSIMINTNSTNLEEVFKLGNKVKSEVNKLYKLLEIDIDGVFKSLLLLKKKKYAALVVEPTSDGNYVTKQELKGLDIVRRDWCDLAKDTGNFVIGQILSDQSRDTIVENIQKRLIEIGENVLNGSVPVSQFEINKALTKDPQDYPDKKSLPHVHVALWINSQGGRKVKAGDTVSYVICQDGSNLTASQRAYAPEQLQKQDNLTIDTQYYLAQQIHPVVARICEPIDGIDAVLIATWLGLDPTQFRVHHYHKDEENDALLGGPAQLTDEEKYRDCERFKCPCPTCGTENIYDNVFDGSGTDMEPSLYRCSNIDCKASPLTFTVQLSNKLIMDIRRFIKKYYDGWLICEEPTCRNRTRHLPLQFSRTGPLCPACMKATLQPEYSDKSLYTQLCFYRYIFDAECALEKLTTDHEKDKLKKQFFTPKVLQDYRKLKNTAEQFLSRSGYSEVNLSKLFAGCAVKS
T2 sequence (Q14181 whole entry partner): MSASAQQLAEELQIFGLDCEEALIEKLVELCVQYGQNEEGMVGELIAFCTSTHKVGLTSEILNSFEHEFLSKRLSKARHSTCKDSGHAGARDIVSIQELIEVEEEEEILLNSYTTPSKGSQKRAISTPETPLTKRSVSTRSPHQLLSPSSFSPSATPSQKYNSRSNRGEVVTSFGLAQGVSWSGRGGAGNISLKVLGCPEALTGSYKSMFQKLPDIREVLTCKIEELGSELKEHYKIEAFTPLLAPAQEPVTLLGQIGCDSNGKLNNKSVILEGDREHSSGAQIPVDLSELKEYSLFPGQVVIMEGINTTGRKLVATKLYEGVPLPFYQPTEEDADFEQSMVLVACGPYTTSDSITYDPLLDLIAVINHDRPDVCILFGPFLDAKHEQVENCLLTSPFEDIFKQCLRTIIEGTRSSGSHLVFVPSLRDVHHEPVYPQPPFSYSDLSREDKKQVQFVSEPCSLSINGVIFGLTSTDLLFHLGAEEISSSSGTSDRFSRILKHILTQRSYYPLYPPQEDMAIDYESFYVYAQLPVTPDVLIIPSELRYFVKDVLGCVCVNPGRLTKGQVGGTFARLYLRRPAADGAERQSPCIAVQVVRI
T2 sequence (P49642 whole entry partner): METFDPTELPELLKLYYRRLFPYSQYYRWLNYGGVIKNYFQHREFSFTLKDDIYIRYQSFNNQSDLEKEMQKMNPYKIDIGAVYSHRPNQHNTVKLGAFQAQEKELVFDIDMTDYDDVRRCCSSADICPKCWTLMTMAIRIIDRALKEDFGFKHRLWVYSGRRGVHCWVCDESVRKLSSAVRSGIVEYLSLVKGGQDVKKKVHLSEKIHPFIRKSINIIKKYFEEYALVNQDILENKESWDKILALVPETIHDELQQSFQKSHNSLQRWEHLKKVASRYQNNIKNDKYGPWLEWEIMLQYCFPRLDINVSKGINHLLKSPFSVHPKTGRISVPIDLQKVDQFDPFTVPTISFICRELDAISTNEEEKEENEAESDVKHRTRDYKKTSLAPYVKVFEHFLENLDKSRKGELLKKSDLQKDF
T2 sequence (P49643 whole entry partner): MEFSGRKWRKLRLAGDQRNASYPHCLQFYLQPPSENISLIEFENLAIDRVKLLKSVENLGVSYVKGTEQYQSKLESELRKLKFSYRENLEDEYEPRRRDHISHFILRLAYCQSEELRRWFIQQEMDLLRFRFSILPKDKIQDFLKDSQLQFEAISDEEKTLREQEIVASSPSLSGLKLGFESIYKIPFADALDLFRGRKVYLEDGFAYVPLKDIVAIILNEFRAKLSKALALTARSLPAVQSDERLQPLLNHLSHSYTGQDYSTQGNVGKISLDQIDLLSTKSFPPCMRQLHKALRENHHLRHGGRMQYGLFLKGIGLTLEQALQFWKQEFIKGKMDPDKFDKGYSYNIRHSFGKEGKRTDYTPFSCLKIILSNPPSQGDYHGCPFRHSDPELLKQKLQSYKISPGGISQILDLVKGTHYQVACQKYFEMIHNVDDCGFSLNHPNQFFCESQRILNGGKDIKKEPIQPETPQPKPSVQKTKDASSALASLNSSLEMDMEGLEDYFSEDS

HeLa cell polymerase γ = target: T3, HeLa cell polymerase γ (Homo sapiens, UniProt P54098); assay: DNA polymerase γ assay, standard assay conditions; assay type: biochemical; conditions: for effect on HeLa cell polymerase γ (in words): 400 μM; for CMP Incorporated, Pol γ: additive at 400 M (so in the source), DMSO control 7,490
T3 sequence (P54098 1-1239): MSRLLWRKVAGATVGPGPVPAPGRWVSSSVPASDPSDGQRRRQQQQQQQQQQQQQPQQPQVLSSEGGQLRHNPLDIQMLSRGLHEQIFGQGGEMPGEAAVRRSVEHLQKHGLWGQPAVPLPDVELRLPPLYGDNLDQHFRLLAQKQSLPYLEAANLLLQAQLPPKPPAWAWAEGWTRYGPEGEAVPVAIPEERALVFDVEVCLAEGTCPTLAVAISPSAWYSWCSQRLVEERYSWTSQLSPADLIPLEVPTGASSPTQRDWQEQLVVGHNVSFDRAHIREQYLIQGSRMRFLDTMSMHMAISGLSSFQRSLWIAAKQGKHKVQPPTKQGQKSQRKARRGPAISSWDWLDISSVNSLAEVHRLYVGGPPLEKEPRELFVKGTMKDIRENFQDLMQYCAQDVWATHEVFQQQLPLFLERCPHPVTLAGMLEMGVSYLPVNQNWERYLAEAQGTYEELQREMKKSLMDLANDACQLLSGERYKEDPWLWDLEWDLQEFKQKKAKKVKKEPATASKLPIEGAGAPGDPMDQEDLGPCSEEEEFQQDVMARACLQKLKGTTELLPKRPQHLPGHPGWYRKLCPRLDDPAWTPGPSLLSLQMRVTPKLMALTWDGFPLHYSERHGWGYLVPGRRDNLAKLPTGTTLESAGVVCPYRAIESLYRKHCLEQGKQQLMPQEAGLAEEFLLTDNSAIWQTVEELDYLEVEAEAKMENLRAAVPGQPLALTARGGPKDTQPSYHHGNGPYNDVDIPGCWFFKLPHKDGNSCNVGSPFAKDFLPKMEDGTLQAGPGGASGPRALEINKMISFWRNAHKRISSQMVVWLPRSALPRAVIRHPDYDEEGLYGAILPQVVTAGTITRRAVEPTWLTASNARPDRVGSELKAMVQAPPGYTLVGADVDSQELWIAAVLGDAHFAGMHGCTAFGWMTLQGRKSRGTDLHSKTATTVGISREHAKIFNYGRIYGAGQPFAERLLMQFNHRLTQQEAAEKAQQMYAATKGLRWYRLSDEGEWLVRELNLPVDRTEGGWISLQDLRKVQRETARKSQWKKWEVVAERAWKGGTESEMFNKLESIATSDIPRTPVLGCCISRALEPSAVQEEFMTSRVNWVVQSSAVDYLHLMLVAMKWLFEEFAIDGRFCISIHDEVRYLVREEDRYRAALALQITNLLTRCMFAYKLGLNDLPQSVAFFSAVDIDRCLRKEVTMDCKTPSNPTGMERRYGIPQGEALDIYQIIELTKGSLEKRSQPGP
T3 sequence (Q9UHN1 2-485 partner): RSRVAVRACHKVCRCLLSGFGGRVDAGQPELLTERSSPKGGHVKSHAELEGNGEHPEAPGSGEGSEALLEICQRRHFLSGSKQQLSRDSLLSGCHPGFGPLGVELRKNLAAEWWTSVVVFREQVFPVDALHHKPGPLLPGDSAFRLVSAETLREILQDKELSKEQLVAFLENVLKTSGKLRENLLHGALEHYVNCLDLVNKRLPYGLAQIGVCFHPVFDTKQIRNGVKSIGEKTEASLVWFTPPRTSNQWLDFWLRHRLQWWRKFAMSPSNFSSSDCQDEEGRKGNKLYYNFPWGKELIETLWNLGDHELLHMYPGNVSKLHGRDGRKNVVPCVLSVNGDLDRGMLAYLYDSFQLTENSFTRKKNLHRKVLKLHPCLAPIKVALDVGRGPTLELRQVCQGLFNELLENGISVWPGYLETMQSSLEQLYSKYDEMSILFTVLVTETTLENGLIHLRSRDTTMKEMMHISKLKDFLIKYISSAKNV
Method: as §1

HeLa cell polymerase α [4] = target: T2, HeLa cell polymerase α; assay: DNA polymerase α assay, standard assay conditions; assay type: biochemical; conditions: for effect on HeLa cell polymerase α (in words): 400 μM; for CMP Incorporated, Pol α: additive at 400 M (so in the source), DMSO control 15,040
Method: as §1

HeLa cell polymerase β = HeLa cell polymerase β (Homo sapiens, UniProt P06746); assay: DNA polymerase β assay, standard assay conditions; assay type: biochemical; conditions: for effect on HeLa cell polymerase β (in words): 400 μM; for CMP Incorporated, Pol β: additive at 400 M (so in the source), DMSO control 5,221
Method: as §1

EL-4 = assay: Inhibition of cell proliferation, EL-4 (TdT-positive); assay type: cell-based, Mouse
Method: (§2) HeLa cells, El-4cells, L1210 cells were grown in suspended cell culture under standard conditions in RPMI medium, at 37° C. in moist air containing 5% CO2. All inhibitions were performed using a final concentration of 1% DMSO as inhibitor solvent. Control cells were therefore grown in the presence of 1% DMSO.
(§3) Compound GW18C (6-(p-aminoanilo) uracil) was prepared as a 40 mM stock solution in pre-heated DMSO. This stock solution was progressively diluted to give a range of operating inhibitory concentrations between 1×10^-9 M and […]. Inhibition was measured by comparing the number of viable cells in control cultures at the end of 72 hours with the number in cultures exposed to inhibitor.

HeLa cells [5] = assay: Inhibition of cell proliferation, HeLa (TdT-negative); assay type: cell-based, Human; conditions: even at 400 μM; 1% DMSO; viable cells at 72 hours
Method: as §2, §3

L1210 cells = assay: Inhibition of cell proliferation, L1210 (TdT-negative); assay type: cell-based, Mouse; conditions: even at 400 μM; 1% DMSO; viable cells at 72 hours
Method: as §2, §3

## 6-(p-methoxybenzyl)-6-aminouracil [GW-33E]
[1]
  CMP 3H--dGMP inc.: 11,988 CMP

## CCCCc1ccc(Nc2cc(=O)[nH]c(=O)[nH]2)cc1 [6-(p-n-butylanilino) uracil]
HeLa cells [2]
  inhibition of HeLa cell division and DNA synthesis (in words): selective inhibitor
HeLa cell polymerase α [3]
  inhibition of DNA polymerase alpha of HeLa cells (in words): specific inhibitor

## O=c1cc(NCc2ccccc2)[nH]c(=O)[nH]1 [GW-7B, 6-(benzylamino)uracil]
[1]
  CMP 3H--dGMP inc.: 12,780 CMP

## O=c1cc(NCCc2ccccc2)[nH]c(=O)[nH]1 [GW-7C, 6-(phenethylamino)uracil]
[1]
  CMP 3H--dGMP inc.: 12,391 CMP

## O=c1cc(Nc2ccccc2)[nH]c(=O)[nH]1 [GW-9E, 6-anilinouracil]
[1]
  CMP 3H--dGMP inc.: 10,350 CMP

## CCCCc1ccc(Nc2cc(=O)[nH]c(=O)[nH]2)cc1 [GW-11D, 6-(p-butylanilino)uracil]
[1]
  CMP 3H--dGMP inc.: 10,925 CMP

## CC(=O)Nc1ccc(CNc2cc(=O)[nH]c(=O)[nH]2)cc1 [GW-16C, 6-(p-acetamidobenzylamino)uracil]
[1]
  CMP 3H--dGMP inc.: 14,160 CMP

## O=c1cc(Nc2ccc3c(c2)CCC3)[nH]c(=O)[nH]1 [GW-17B, 6-(3',4'-trimethyleneanilino)uracil]
[1]
  CMP 3H--dGMP inc.: 12,383 CMP

## COc1ccc(Nc2cc(=O)[nH]c(=O)[nH]2)cc1 [GW-17E, 6-(p-methoxyanilo)uracil]
HeLa cell polymerase γ
  effect on HeLa cell polymerase γ (in words): not effected
  CMP Incorporated, Pol γ: 7,223 CMP
HeLa cell polymerase α [4]
  effect on HeLa cell polymerase α (in words): not effected
  CMP Incorporated, Pol α: 15,217 CMP
HeLa cell polymerase β
  effect on HeLa cell polymerase β (in words): not effected
  CMP Incorporated, Pol β: 5,492 cpm
[1]
  CMP 3H--dGMP inc.: 6,980 CMP
  CMP Incorporated, TdT: 4,964 CMP

## O=c1cc(NC2CCCCC2)[nH]c(=O)[nH]1 [GW-18B, 6-(cyclohexylamino)uracil]
[1]
  CMP 3H--dGMP inc.: 13,442 CMP

## Nc1ccc(Nc2cc(=O)[nH]c(=O)[nH]2)cc1 [GW-18C, 6-(p-aminoanilo)uracil]
HeLa cell polymerase γ
  effect on HeLa cell polymerase γ (in words): not effected
  CMP Incorporated, Pol γ: 7,165 CMP
HeLa cell polymerase α [4]
  effect on HeLa cell polymerase α (in words): not effected
  CMP Incorporated, Pol α: 15,417 CMP
EL-4; 400 μM, 1% DMSO
  EL-4 proliferation (in words): inhibited
EL-4; Mus musculus, EL4, EL-4, at 72 hours, read-out: maximal growth inhibition
  inhibition at 400 µM: 80%
HeLa cells [5]
  growth of HeLa cells (in words): not inhibited
L1210 cells
  growth of L1210 cells (in words): not inhibited
HeLa cell polymerase β
  effect on HeLa cell polymerase β (in words): not effected
  CMP Incorporated, Pol β: 5,218 cpm
[1]
  CMP 3H--dGMP inc.: 5,198 CMP
  CMP Incorporated, TdT: 3,102 CMP

## CCCCCNc1cc(=O)[nH]c(=O)[nH]1 [GW-18E, 6-(n-pentylamino)uracil]
[1]
  CMP 3H--dGMP inc.: 11,674 CMP

## O=c1cc(NCC2CCCCC2)[nH]c(=O)[nH]1 [GW-20B, 6-(cyclohexylmethylamino)uracil]
[1]
  CMP 3H--dGMP inc.: 11,296 CMP

## CC(C)CCNc1cc(=O)[nH]c(=O)[nH]1 [GW-22A, 6-(iso-pentylamino)uracil]
[1]
  CMP 3H--dGMP inc.: 12,005 CMP

## O=c1cc(Nc2ccc(O)cc2)[nH]c(=O)[nH]1 [GW-22E, 6-(p-hydroxyanilino)uracil]
[1]
  CMP 3H--dGMP inc.: 21,760 CMP

## O=c1cc(Nc2cccc(O)c2)[nH]c(=O)[nH]1 [GW-23A]
[1]
  TdT inhibition (in words): not inhibitory

## O=c1cc(Nc2cccc3ccccc23)[nH]c(=O)[nH]1 [GW-28A, 6-(d-naphthylamino)uracil]
[1]
  CMP 3H--dGMP inc.: 12,038 CMP

## Cc1ccc(Nc2cc(=O)[nH]c(=O)[nH]2)cc1CO [GW-28D]
[1]
  TdT inhibition (in words): not inhibitory
